According to PubChem BioAssay (NCI):
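Protocol summary: plate cells (96-well), add compound at 5 concentrations, incubate 48 h, interpolate endpoints linearly. TGI is the concentration that stops growth completely.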

How the values were obtained:
Experiment in all cases: inhibition of tumour cell growth, NCI panel, 48 h
[1] = system: MALME-3M melanoma
[2] = system: HCT-116 colon
[3] = system: HOP-62 NSCLC
[4] = system: SF-268 CNS
[5] = system: M14 melanoma
[6] = system: BT-549 breast
[7] = system: HT29 colon
[8] = system: LOX IMVI melanoma
[9] = system: DU-145 prostate
[10] = system: ACHN renal

Row | SMILES | TGI [1] | TGI [2] | TGI [3] | TGI [4] | TGI [5] | TGI [6] | TGI [7] | TGI [8] | TGI [9] | TGI [10]
1 | CC(C)(Oc1ccc(Cl)cc1)C(=O)N(C(=O)N1CCC(c2ccccc2)CC1)c1ccccc1 | > 100 µM | > 100 µM | > 100 µM | > 100 µM | > 100 µM | > 95.8 µM | > 100 µM | > 100 µM | > 100 µM | > 100 µM
2 | CC1CC/C(=C\c2ccc(Cl)cc2)C2OC(N)=C(C#N)C(c3ccc(Cl)cc3)=C12 (stereo not drawn) | 28.7 µM | 27.4 µM | 9.84 µM | 31.2 µM | 39 µM | 30.7 µM | 20.7 µM | 26.6 µM | 34.5 µM | 29.9 µM
3 | O=C(Cn1c(C(=O)/C=C/c2cccs2)nc2ccccc21)c1ccc(Cl)cc1 | 54.7 µM | 39.5 µM | > 100 µM | 66.5 µM | 40.7 µM | 63.6 µM | 56.9 µM | 27.3 µM | > 100 µM | > 100 µM
4 | COc1ccc(C(SC2C(O)C(CO)OC2n2ccc(N)nc2=O)(c2ccccc2)c2ccc(OC)cc2)cc1 (stereo not drawn) | 28.3 µM | 29.4 µM | 40.5 µM | 39.5 µM | 27.9 µM | 43 µM | 36.2 µM | 33.1 µM | 39.4 µM | > 100 µM
5 | CC(C)C(OC(=O)c1ccc(NCc2cc(O)ccc2O)cc1)C(C)C | 3.3 µM | 14 µM | 21.7 µM | 5.3 µM | 6.93 µM | 2.23 µM | 16.6 µM | 2.31 µM | 20.9 µM | 2.33 µM
6 | CCCC(=O)NC(Nc1ccc(S(=O)(=O)Nc2nc(C)cc(C)n2)cc1)(C(F)(F)F)C(F)(F)F | > 100 µM | > 100 µM | > 100 µM | > 100 µM | > 100 µM | > 100 µM | > 100 µM | > 100 µM | > 100 µM | > 100 µM
7 | O=c1cc(N2CCN(c3cc(=O)n4ccccc4n3)CC2)oc2ccccc12 | > 100 µM | > 100 µM | – | > 65.3 µM | > 100 µM | > 100 µM | > 100 µM | > 100 µM | > 100 µM | > 100 µM
8 | COc1cc2c(cc1OC)C(Cl)C(c1ccc(Cl)c(Cl)c1)=C2Cl (stereo not drawn) | 40.8 µM | – | – | – | 50.1 µM | – | 12.2 µM | 5.75 µM | – | 21.8 µM
9 | CC1(C)CC(=O)c2c(nc3ccc4ccccc4c3c2-c2ccc(NC(=O)CCCCCCCCC(=O)Nc3ccc(-c4c5c(nc6ccc7ccccc7c46)CC(C)(C)CC5=O)cc3)cc2)C1 | – | > 100 µM | > 100 µM | > 100 µM | > 100 µM | > 100 µM | > 100 µM | > 100 µM | > 100 µM | > 100 µM
10 | CCOC(=O)c1cc2c3c(c(C(C)=O)c(O)c2[nH]1)N(CC(C)CC)CC3 (stereo not drawn) | 81.4 µM | > 100 µM | – | > 100 µM | – | > 100 µM | > 100 µM | > 100 µM | > 100 µM | > 100 µM
11 | CCOC(=O)Cc1cc(OC)c(OC)cc1/C(Cl)=C(\C=O)c1ccc(OC)c(OC)c1 | 74.3 µM | 29 µM | 46.9 µM | – | 32.1 µM | – | 29.2 µM | 36.4 µM | – | 55.6 µM
12 | c1cn(C23C4C5C6C4C2C6C53)cn1 (stereo not drawn) | – | > 100 µM | > 100 µM | > 100 µM | > 100 µM | > 100 µM | > 100 µM | > 100 µM | > 100 µM | > 100 µM
13 | C[C@H]1C[C@H]2[C@@H]3C(C)(C)O[C@]4(O)C(=O)[C@]5(O)[C@@H](C)CC[C@H]1[C@]25C(=O)[C@]34C | – | > 100 µM | > 100 µM | > 100 µM | > 100 µM | – | 70.3 µM | > 100 µM | > 100 µM | 72.6 µM
14 | Nc1ncnc2c1nnn2C1CCC(CP(=O)(O)O)C1 (stereo not drawn) | > 100 µM | > 100 µM | > 100 µM | > 100 µM | > 100 µM | – | > 100 µM | > 100 µM | > 100 µM | > 100 µM
15 | C=C(C)C(O)C(O)c1c(OC)ccc2ccc(=O)oc12 (stereo not drawn) | > 100 µM | > 100 µM | > 100 µM | > 100 µM | > 100 µM | > 100 µM | > 100 µM | – | > 100 µM | > 100 µM
16 | OC(CCNCc1ccccc1)c1ccc2ccccc2c1 (stereo not drawn) | 38.7 µM | 47.1 µM | 33.5 µM | 48 µM | > 100 µM | – | 61.7 µM | 27.2 µM | 39.6 µM | 41.5 µM
17 | COc1cc2cc[n+]3c(C)c4cc(OC)c(OC)cc4c([O-])c3c2cc1OC | 79.7 µM | > 100 µM | > 100 µM | > 100 µM | > 100 µM | – | > 100 µM | – | – | > 100 µM
18 | NNC(=O)Cn1c2ccc(Br)cc2c2nc3ccccc3nc21 | – | – | 89.8 µM | > 100 µM | > 100 µM | > 100 µM | > 100 µM | – | > 100 µM | > 100 µM
19 | O=C1c2cc3c(cc2CC12Cc1ccc4c(c1C2=O)CCCC4)CCCC3 (stereo not drawn) | > 100 µM | > 100 µM | > 100 µM | > 100 µM | > 100 µM | – | > 100 µM | > 100 µM | > 100 µM | > 100 µM
20 | C/C(Nc1ccc(F)cc1)=C1/CCOC1=O | > 100 µM | > 100 µM | > 100 µM | > 100 µM | – | > 100 µM | > 100 µM | > 100 µM | > 100 µM | > 100 µM
21 | O=C1C(=O)c2ccccc2C(O)=C1CCCc1ccc(Oc2ccccc2)cc1 | 75 µM | – | 23.2 µM | > 100 µM | 24.5 µM | – | 75.2 µM | 15.3 µM | – | 76.5 µM
22 | COc1ccc(-c2cc(-c3ccc(Nc4ccnc5cc(Cl)ccc45)cc3)[nH]c(=O)c2C#N)c2ccccc12 | 8.01 µM | – | > 53.9 µM | > 96.6 µM | 4.93 µM | 71.7 µM | – | – | > 32.7 µM | > 100 µM
